Patent publication US20200017495A1, “NOVEL HETEROCYCLIC COMPOUNDS AND THEIR USE IN PREVENTING OR TREATING BACTERIAL INFECTIONS” (priority 2017, published 2020)

Test system: Escherichia coli (ECO) isolates
Assay: MIC of compounds alone and combined with antibacterials, broth microdilution (CLSI)
Type: cell-based
Outline: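 Antibacterial MICs in combination were determined at every compound concentration tested, alongside compound MICs alone. Bacteria grew in cation-adjusted Mueller-Hinton broth starting from 5.10^5 CFU/mL, incubated at 35° C for 16-20 h, and endpoints were the lowest concentrations with no visible growth.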

C=CC1=C(C(=O)O)N2C(=O)[C@@H](NC(=O)/C(=N\OCC(=O)O)c3csc(N)n3)[C@H]2SC1 [FIX, Cefixime]
MIC ATB in combination (ECO UFR45, AF2 @ 8 μg/mL): <0.25 µg/mL | MIC ATB in combination (ECO UFR45, AF3 @ 8 μg/mL): <0.25 µg/mL | MIC ATB in combination (ECO UFR45, CLA @ 4 μg/mL): 32 µg/mL | MIC ATB in combination (ECO UFR52, AF2 @ 8 μg/mL): >128 µg/mL | MIC ATB in combination (ECO UFR52, AF3 @ 8 μg/mL): >128 µg/mL | MIC ATB in combination (ECO UFR52, CLA @ 4 μg/mL): >128 µg/mL | MIC ATB in combination (ECO UFR61O, AF2 @ 8 μg/mL): <=0.25 μg/mL | MIC ATB in combination (ECO UFR61O, AF3 @ 8 μg/mL): <0.25 µg/mL | MIC ATB in combination (ECO UFR61O, CLA @ 4 μg/mL): 32 µg/mL | MIC ATB in combination (ECO UFR62, AF2 @ 8 μg/mL): <0.25 µg/mL | MIC ATB in combination (ECO UFR62, AF3 @ 8 μg/mL): <0.25 µg/mL | MIC ATB in combination (ECO UFR62, CLA @ 4 μg/mL): 32 µg/mL | MIC ATB in combination (ECO UFR74, AF2 @ 8 μg/mL): <0.25 µg/mL | MIC ATB in combination (ECO UFR74, AF3 @ 8 μg/mL): <0.25 µg/mL | MIC ATB in combination (ECO UFR74, CLA @ 4 μg/mL): >128 µg/mL | MIC ATB in combination (ECO UFR86, AF2 @ 8 μg/mL): 0.5 µg/mL | MIC ATB in combination (ECO UFR86, AF3 @ 8 μg/mL): 0.5 µg/mL | MIC ATB in combination (ECO UFR86, CLA @ 4 μg/mL): 2 µg/mL | MIC ATB in combination (ECO UFR174, AF2 @ 8 μg/mL): <0.25 µg/mL | MIC ATB in combination (ECO UFR174, AF3 @ 8 μg/mL): <0.25 µg/mL | MIC ATB in combination (ECO UFR174, CLA @ 4 μg/mL): 2 µg/mL | MIC ATB in combination (ECO UFR175, AF2 @ 8 μg/mL): <0.25 µg/mL | MIC ATB in combination (ECO UFR175, AF3 @ 8 μg/mL): <=0.25 μg/mL | MIC ATB in combination (ECO UFR175, CLA @ 4 μg/mL): 16 µg/mL | MIC ATB in combination (ECO UFR176, AF2 @ 8 μg/mL): <0.25 µg/mL | MIC ATB in combination (ECO UFR176, AF3 @ 8 μg/mL): <0.25 µg/mL | MIC ATB in combination (ECO UFR176, CLA @ 4 μg/mL): 32 µg/mL | MIC ATB in combination (ECO UFR184, AF2 @ 8 μg/mL): <0.25 µg/mL | MIC ATB in combination (ECO UFR184, AF3 @ 8 μg/mL): <0.25 µg/mL | MIC ATB in combination (ECO UFR184, CLA @ 4 μg/mL): >128 µg/mL | MIC ATB in combination (ECO UFR208, AF2 @ 8 μg/mL): >128 µg/mL | MIC ATB in combination (ECO UFR208, AF3 @ 8 μg/mL): >128 µg/mL | MIC ATB in combination (ECO UFR208, CLA @ 4 μg/mL): >128 µg/mL | MIC ATB in combination (ECO UFR209, AF2 @ 8 μg/mL): <0.25 µg/mL | MIC ATB in combination (ECO UFR209, AF3 @ 8 μg/mL): <0.25 µg/mL | MIC ATB in combination (ECO UFR209, CLA @ 4 μg/mL): 1 µg/mL | MIC ATB in combination (ECO UFR210, AF2 @ 8 μg/mL): <0.25 µg/mL | MIC ATB in combination (ECO UFR210, AF3 @ 8 μg/mL): <0.25 µg/mL | MIC ATB in combination (ECO UFR210, CLA @ 4 μg/mL): 0.5 µg/mL | MIC ATB in combination (ECO UFR211, AF2 @ 8 μg/mL): <0.25 µg/mL | MIC ATB in combination (ECO UFR211, AF3 @ 8 μg/mL): <0.25 µg/mL | MIC ATB in combination (ECO UFR211, CLA @ 4 μg/mL): 2 µg/mL | MIC ATB in combination (ECO UFR212, AF2 @ 8 μg/mL): <0.25 µg/mL | MIC ATB in combination (ECO UFR212, AF3 @ 8 μg/mL): <0.25 µg/mL | MIC ATB in combination (ECO UFR212, CLA @ 4 μg/mL): >128 µg/mL | MIC ATB in combination (ECO URF20, AF2 @ 8 μg/mL): <=0.25 μg/mL | MIC ATB in combination (ECO URF20, AF3 @ 8 μg/mL): 2 µg/mL | MIC ATB in combination (ECO URF20, CLA @ 4 μg/mL): >128 µg/mL | MIC (strain ECO 4133, genotype TEM-30, OXA-1): 0.5 µg/mL | MIC (strain ECO 5302, genotype TEM-1, OXA-1): 0.5 µg/mL | MIC (strain ECO 131119, genotype TEM-1, OXA-48): <=0.25 μg/mL | MIC (strain ECO 180070, genotype TEM-1, CTX-M-15): 128 µg/mL | MIC (strain ECO 190314, genotype CTX-M-1): 16 µg/mL | MIC (strain ECO 190317, compound alone): >128 µg/mL | MIC (strain ECO 190317, genotype TEM-1, SHV-12, CTX-M-15, OXA-1): >128 µg/mL | MIC (strain ECO 190457, compound alone): 128 µg/mL | MIC (strain ECO 190457, genotype CTX-M-15, OXA-1): 128 µg/mL | MIC (strain ECO 190549, genotype CTX-M-1): 16 µg/mL | MIC (strain ECO 200159, genotype TEM-1, CTX-M-14): 8 µg/mL | MIC (strain ECO 200259, genotype CTX-M-14): 8 µg/mL | MIC (strain ECO 200344, genotype CTX-M-1): 32 µg/mL | MIC (strain ECO 260096, genotype CTX-M-132): >128 µg/mL | MIC (strain ECO 260304, genotype CTX-M-15): 32 µg/mL | MIC (strain ECO 260508, genotype TEM-1, CTX-M-15, OXA-1): >128 µg/mL | MIC (strain ECO RGN238, genotype OXA-1): <=0.25 μg/mL | MIC (strain ECO UFR15, genotype TEM-1, OXA-48): 1 µg/mL | MIC (strain ECO UFR16, compound alone): >128 µg/mL | MIC (strain ECO UFR16, genotype TEM-1, CTX-M-15, OXA-1, OXA-48): >128 µg/mL | MIC (strain ECO UFR17, genotype TEM-1, CTX-M-15, CMY-2, OXA-1, OXA-181): >128 µg/mL | MIC (strain ECO UFR18, genotype CTX-M-15, OXA-204): >128 µg/mL | MIC (strain ECO UFR19, genotype CTX-M-15, CMY-2, OXA-1, OXA-204): >128 µg/mL | MIC (strain ECO UFR20, compound alone): 512 µg/mL | MIC (strain ECO UFR20, genotype SHV-1, CTX-M-15, OXA-1, OXA-232): 512 µg/mL | MIC (strain ECO UFR32, genotype TEM-1, VEB-1, OXA-10): 128 µg/mL | MIC (strain ECO UFR39, genotype CTX-M-15, NDM-1): >128 µg/mL | MIC (strain ECO UFR41, genotype TEM-1, CTX-M-15, CMY-2, OXA-1, NDM-4): >128 µg/mL | MIC (strain ECO UFR45, genotype TEM-1, CMY-4, OXA-1, OXA-48, VIM-1): >128 µg/mL | MIC (strain ECO UFR52, genotype TEM-1, SHV-12, IMP-8): >128 µg/mL | MIC (strain ECO UFR61O, compound alone): 32 µg/mL | MIC (strain ECO UFR61O, genotype TEM-1, KPC-2): 32 µg/mL | MIC (strain ECO UFR62, genotype TEM-1, CTX-M-9, KPC-2): 128 µg/mL | MIC (strain ECO UFR74, genotype SHV-1, DHA-1): >128 µg/mL | MIC (strain ECO UFR86, genotype ompC-, ompF-): 2 µg/mL | MIC (strain ECO UFR174, genotype TEM-1, KPC-2, OXA-1): 8 µg/mL | MIC (strain ECO UFR175, genotype TEM-1, KPC-2, OXA-9): 64 µg/mL | MIC (strain ECO UFR176, genotype KPC-3, OXA-9*): 64 µg/mL | MIC (strain ECO UFR177, genotype TEM-1, CTX-M-15, OXA-1, OXA-2, NDM-1, RmtC, antibiotic alone): >128 µg/mL | MIC ATB in combination (strain ECO UFR177, with AF2 @ 8 μg/mL): <=0.25 μg/mL | MIC ATB in combination (strain ECO UFR177, with AF3 @ 8 μg/mL): <0.25 µg/mL | MIC ATB in combination (strain ECO UFR177, with CLA @ 4 μg/mL): >128 µg/mL | MIC (strain ECO UFR178, genotype TEM-1, CTX-M-15, OXA-9, NDM-1, antibiotic alone): >128 µg/mL | MIC ATB in combination (strain ECO UFR178, with AF2 @ 8 μg/mL): <0.25 µg/mL | MIC ATB in combination (strain ECO UFR178, with AF3 @ 8 μg/mL): <0.25 µg/mL | MIC ATB in combination (strain ECO UFR178, with CLA @ 4 μg/mL): >128 µg/mL | MIC (strain ECO UFR179, genotype TEM-1, SHV-12, CTX-M-15, NDM-1, antibiotic alone): >128 µg/mL | MIC ATB in combination (strain ECO UFR179, with AF2 @ 8 μg/mL): <0.25 µg/mL | MIC ATB in combination (strain ECO UFR179, with AF3 @ 8 μg/mL): <0.25 µg/mL
